Measurements taken from ChEMBL document CHEMBL5442219.

How the values were obtained:
Conditions in all cases: Compound concentration 10 µM
[1] = target: T1, Muscarinic acetylcholine receptor M4 (Homo sapiens) (UniProt P08173)
T1 sequence (whole entry): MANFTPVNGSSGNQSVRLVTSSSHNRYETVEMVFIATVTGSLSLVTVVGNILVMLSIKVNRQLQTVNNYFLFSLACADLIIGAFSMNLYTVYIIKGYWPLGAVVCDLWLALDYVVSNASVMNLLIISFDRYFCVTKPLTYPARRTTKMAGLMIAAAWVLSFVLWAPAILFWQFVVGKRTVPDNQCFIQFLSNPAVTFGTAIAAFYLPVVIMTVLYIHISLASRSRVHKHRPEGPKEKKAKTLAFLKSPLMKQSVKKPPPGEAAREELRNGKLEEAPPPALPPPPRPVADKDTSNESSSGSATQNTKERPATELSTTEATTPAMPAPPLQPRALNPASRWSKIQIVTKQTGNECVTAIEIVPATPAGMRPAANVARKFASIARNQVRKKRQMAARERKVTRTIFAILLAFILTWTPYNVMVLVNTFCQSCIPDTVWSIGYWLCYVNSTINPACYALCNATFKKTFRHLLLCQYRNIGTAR
Description: PDSP Primary Binding target: CHRM4 - Compounds are tested at 10 uM concentration, plate are incubated at room temperature in the dark for 90 minutes. Reaction are stopped by vacuum filtration onto 0.3% polyethyleneimine soaked filter mats using Filtermate harvester. Scintilation cocktail is then melted onto microwave-dried filters on a hot plate and the radio activity is counted in Microbia counter.

[2] = target: D(2) dopamine receptor (Homo sapiens) (UniProt P14416)
D(2) dopamine receptor (Homo sapiens), sequence (P14416 whole entry): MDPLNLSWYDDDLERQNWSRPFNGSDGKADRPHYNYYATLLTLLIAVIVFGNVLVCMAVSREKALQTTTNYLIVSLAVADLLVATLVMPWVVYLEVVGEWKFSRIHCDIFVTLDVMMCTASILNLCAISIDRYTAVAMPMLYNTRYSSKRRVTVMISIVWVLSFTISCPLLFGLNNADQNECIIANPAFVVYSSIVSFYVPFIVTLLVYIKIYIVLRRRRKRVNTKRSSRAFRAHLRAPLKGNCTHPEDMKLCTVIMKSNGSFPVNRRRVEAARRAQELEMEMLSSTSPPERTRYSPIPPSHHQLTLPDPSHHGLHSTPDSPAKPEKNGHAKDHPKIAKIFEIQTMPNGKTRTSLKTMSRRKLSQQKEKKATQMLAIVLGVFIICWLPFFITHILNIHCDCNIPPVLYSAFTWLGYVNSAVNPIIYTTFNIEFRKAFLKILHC
Description: PDSP Primary Binding target: DRD2 - Compounds are tested at 10 uM concentration, plate are incubated at room temperature in the dark for 90 minutes. Reaction are stopped by vacuum filtration onto 0.3% polyethyleneimine soaked filter mats using Filtermate harvester. Scintilation cocktail is then melted onto microwave-dried filters on a hot plate and the radio activity is counted in Microbia counter.

[3] = target: Beta-1 adrenergic receptor (Homo sapiens) (UniProt P08588)
Beta-1 adrenergic receptor (Homo sapiens), sequence (P08588 whole entry, looked up): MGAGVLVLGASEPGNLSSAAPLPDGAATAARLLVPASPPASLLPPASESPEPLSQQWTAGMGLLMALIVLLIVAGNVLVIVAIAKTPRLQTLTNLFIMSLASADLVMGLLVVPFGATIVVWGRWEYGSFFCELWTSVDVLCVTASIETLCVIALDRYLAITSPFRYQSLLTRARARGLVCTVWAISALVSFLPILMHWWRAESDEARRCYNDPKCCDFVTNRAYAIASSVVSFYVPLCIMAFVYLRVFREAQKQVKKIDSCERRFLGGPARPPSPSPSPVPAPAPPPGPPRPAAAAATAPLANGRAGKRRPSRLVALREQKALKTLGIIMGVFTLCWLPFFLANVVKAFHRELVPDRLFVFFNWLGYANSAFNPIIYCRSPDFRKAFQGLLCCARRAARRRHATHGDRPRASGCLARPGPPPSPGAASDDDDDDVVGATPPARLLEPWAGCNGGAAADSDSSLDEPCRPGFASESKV
Description: PDSP Primary Binding target: ADRB1 - Compounds are tested at 10 uM concentration, plate are incubated at room temperature in the dark for 90 minutes. Reaction are stopped by vacuum filtration onto 0.3% polyethyleneimine soaked filter mats using Filtermate harvester. Scintilation cocktail is then melted onto microwave-dried filters on a hot plate and the radio activity is counted in Microbia counter.

[4] = target: D(1A) dopamine receptor (Homo sapiens) (UniProt P21728)
D(1A) dopamine receptor (Homo sapiens), sequence (P21728 whole entry): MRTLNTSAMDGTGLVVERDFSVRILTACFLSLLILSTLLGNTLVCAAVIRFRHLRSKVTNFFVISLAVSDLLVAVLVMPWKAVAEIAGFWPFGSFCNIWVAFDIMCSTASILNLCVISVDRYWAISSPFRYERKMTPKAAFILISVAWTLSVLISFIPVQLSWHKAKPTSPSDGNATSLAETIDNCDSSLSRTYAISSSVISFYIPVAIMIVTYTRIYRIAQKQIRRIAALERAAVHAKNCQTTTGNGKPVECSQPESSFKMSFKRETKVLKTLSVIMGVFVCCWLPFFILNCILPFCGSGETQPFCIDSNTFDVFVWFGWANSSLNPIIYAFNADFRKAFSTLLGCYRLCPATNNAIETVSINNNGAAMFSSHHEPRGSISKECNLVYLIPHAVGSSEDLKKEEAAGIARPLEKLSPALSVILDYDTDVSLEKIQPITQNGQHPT
Description: PDSP Primary Binding target: DRD1 - Compounds are tested at 10 uM concentration, plate are incubated at room temperature in the dark for 90 minutes. Reaction are stopped by vacuum filtration onto 0.3% polyethyleneimine soaked filter mats using Filtermate harvester. Scintilation cocktail is then melted onto microwave-dried filters on a hot plate and the radio activity is counted in Microbia counter.

[5] = target: Histamine H3 receptor (Homo sapiens) (UniProt Q9Y5N1)
Histamine H3 receptor (Homo sapiens), sequence (Q9Y5N1 whole entry): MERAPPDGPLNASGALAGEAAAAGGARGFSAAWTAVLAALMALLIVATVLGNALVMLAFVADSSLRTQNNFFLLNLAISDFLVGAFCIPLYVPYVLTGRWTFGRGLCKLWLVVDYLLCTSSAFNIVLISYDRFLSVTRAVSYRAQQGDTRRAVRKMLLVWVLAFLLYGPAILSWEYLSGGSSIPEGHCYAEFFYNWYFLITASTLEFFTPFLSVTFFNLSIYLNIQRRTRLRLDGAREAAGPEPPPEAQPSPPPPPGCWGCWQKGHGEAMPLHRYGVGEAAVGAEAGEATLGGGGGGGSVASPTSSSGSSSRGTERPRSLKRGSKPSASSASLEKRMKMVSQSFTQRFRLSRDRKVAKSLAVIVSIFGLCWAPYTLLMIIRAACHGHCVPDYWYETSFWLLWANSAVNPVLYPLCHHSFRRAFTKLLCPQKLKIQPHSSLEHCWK
Description: PDSP Primary Binding target: HRH3 - Compounds are tested at 10 uM concentration, plate are incubated at room temperature in the dark for 90 minutes. Reaction are stopped by vacuum filtration onto 0.3% polyethyleneimine soaked filter mats using Filtermate harvester. Scintilation cocktail is then melted onto microwave-dried filters on a hot plate and the radio activity is counted in Microbia counter.

[6] = target: D(1B) dopamine receptor (Homo sapiens) (UniProt P21918)
D(1B) dopamine receptor (Homo sapiens), sequence (P21918 whole entry): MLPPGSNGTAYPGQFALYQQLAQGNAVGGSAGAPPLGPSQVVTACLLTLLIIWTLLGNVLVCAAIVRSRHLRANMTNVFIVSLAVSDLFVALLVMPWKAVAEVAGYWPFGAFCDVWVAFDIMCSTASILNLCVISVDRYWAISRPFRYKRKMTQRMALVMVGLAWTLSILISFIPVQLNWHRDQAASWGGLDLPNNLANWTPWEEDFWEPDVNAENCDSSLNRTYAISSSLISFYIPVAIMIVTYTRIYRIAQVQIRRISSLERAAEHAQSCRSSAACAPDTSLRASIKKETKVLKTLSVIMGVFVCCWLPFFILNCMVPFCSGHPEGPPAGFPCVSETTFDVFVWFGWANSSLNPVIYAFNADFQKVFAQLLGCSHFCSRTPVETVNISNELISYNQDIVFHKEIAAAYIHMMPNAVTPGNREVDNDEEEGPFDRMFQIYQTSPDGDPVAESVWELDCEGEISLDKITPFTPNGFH
Description: PDSP Primary Binding target: DRD5 - Compounds are tested at 10 uM concentration, plate are incubated at room temperature in the dark for 90 minutes. Reaction are stopped by vacuum filtration onto 0.3% polyethyleneimine soaked filter mats using Filtermate harvester. Scintilation cocktail is then melted onto microwave-dried filters on a hot plate and the radio activity is counted in Microbia counter.

[7] = target: 5-hydroxytryptamine receptor 6 (Homo sapiens) (UniProt P50406)
5-hydroxytryptamine receptor 6 (Homo sapiens), sequence (P50406 whole entry): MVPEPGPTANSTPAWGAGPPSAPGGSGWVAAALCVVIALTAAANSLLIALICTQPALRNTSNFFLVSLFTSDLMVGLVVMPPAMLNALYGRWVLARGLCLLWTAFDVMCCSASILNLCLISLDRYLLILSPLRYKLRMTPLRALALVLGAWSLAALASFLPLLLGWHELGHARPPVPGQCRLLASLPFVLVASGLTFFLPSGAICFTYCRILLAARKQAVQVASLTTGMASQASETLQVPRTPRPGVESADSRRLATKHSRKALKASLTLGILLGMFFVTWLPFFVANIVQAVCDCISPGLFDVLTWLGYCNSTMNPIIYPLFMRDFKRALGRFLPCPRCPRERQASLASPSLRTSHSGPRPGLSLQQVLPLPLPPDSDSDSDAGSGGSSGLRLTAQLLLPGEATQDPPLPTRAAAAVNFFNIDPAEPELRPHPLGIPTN
Description: PDSP Primary Binding target: HTR6 - Compounds are tested at 10 uM concentration, plate are incubated at room temperature in the dark for 90 minutes. Reaction are stopped by vacuum filtration onto 0.3% polyethyleneimine soaked filter mats using Filtermate harvester. Scintilation cocktail is then melted onto microwave-dried filters on a hot plate and the radio activity is counted in Microbia counter.

[8] = target: T2, 5-hydroxytryptamine receptor 1A (Homo sapiens) (UniProt P08908)
T2 sequence (whole entry): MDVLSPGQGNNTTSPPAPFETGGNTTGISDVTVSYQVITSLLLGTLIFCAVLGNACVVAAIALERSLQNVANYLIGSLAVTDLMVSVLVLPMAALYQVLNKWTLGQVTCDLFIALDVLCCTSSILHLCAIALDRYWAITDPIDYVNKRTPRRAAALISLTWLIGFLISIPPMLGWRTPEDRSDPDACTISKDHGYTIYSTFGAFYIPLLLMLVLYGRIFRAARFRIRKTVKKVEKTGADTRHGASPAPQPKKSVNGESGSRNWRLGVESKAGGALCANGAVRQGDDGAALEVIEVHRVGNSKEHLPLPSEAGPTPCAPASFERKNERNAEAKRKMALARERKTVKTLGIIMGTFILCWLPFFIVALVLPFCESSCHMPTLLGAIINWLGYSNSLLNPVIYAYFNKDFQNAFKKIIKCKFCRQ
Description: PDSP Primary Binding target: HTR1A - Compounds are tested at 10 uM concentration, plate are incubated at room temperature in the dark for 90 minutes. Reaction are stopped by vacuum filtration onto 0.3% polyethyleneimine soaked filter mats using Filtermate harvester. Scintilation cocktail is then melted onto microwave-dried filters on a hot plate and the radio activity is counted in Microbia counter.

[9] = target: T3, Alpha-1B adrenergic receptor (Homo sapiens) (UniProt P35368)
T3 sequence (whole entry): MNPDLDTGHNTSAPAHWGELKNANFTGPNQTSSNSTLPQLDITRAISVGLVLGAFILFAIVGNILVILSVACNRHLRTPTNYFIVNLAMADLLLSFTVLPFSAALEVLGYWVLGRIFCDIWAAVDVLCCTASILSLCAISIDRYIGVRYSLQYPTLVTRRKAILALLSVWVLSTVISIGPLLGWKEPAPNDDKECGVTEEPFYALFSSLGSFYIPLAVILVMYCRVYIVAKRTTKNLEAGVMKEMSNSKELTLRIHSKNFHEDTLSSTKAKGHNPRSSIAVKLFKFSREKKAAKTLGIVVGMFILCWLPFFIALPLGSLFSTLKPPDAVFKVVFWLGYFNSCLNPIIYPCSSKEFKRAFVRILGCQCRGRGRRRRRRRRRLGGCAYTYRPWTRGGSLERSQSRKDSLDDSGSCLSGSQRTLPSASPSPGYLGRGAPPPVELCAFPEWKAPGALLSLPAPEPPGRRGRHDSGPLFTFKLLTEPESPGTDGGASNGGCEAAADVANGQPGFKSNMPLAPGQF
Description: PDSP Primary Binding target: ADRA1B - Compounds are tested at 10 uM concentration, plate are incubated at room temperature in the dark for 90 minutes. Reaction are stopped by vacuum filtration onto 0.3% polyethyleneimine soaked filter mats using Filtermate harvester. Scintilation cocktail is then melted onto microwave-dried filters on a hot plate and the radio activity is counted in Microbia counter.

[10] = target: T4, Alpha-1A adrenergic receptor (Homo sapiens) (UniProt P35348)
T4 sequence (whole entry): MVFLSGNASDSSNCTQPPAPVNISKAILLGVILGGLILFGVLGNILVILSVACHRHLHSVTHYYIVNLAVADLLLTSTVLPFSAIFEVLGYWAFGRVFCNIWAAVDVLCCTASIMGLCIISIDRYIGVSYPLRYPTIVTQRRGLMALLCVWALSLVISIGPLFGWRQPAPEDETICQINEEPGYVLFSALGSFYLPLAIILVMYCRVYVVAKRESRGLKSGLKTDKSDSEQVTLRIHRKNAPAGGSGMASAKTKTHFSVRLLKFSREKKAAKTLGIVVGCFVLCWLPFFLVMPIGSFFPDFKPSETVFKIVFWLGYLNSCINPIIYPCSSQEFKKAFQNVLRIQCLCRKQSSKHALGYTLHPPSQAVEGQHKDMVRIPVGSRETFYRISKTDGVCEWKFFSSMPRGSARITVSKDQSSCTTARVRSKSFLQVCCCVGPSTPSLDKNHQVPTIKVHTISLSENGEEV
Description: PDSP Primary Binding target: ADRA1A - Compounds are tested at 10 uM concentration, plate are incubated at room temperature in the dark for 90 minutes. Reaction are stopped by vacuum filtration onto 0.3% polyethyleneimine soaked filter mats using Filtermate harvester. Scintilation cocktail is then melted onto microwave-dried filters on a hot plate and the radio activity is counted in Microbia counter.

[11] = target: Mu-type opioid receptor (Homo sapiens) (UniProt P35372)
Mu-type opioid receptor (Homo sapiens), sequence (P35372 whole entry): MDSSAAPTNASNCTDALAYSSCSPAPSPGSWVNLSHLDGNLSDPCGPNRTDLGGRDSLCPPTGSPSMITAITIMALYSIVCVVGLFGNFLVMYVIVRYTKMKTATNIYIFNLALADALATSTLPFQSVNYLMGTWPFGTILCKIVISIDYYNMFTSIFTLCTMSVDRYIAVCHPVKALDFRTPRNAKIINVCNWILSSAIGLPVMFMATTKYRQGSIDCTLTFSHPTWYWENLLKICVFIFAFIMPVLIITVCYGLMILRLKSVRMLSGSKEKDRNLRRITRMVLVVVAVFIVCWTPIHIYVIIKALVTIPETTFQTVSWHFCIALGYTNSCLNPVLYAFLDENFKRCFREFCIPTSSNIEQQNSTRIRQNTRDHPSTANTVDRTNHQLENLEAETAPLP
Description: PDSP Primary Binding target: OPRM1 - Compounds are tested at 10 uM concentration, plate are incubated at room temperature in the dark for 90 minutes. Reaction are stopped by vacuum filtration onto 0.3% polyethyleneimine soaked filter mats using Filtermate harvester. Scintilation cocktail is then melted onto microwave-dried filters on a hot plate and the radio activity is counted in Microbia counter.

[12] = target: T5, Alpha-2B adrenergic receptor (Homo sapiens) (UniProt P18089)
T5 sequence (whole entry): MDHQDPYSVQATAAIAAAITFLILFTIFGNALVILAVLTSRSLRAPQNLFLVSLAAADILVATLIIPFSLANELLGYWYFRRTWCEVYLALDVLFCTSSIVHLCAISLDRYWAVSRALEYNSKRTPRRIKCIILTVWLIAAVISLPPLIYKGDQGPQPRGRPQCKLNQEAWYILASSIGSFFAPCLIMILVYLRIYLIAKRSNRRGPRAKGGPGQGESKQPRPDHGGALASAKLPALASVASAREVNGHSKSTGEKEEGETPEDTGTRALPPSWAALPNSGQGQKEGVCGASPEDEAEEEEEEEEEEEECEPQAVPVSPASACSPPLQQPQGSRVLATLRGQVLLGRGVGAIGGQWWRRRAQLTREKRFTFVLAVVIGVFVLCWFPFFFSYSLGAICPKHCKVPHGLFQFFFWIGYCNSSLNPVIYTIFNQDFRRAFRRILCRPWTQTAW
Description: PDSP Primary Binding target: ADRA2B - Compounds are tested at 10 uM concentration, plate are incubated at room temperature in the dark for 90 minutes. Reaction are stopped by vacuum filtration onto 0.3% polyethyleneimine soaked filter mats using Filtermate harvester. Scintilation cocktail is then melted onto microwave-dried filters on a hot plate and the radio activity is counted in Microbia counter.

[13] = target: Muscarinic acetylcholine receptor M3 (Homo sapiens) (UniProt P20309)
Muscarinic acetylcholine receptor M3 (Homo sapiens), sequence (P20309 whole entry, looked up): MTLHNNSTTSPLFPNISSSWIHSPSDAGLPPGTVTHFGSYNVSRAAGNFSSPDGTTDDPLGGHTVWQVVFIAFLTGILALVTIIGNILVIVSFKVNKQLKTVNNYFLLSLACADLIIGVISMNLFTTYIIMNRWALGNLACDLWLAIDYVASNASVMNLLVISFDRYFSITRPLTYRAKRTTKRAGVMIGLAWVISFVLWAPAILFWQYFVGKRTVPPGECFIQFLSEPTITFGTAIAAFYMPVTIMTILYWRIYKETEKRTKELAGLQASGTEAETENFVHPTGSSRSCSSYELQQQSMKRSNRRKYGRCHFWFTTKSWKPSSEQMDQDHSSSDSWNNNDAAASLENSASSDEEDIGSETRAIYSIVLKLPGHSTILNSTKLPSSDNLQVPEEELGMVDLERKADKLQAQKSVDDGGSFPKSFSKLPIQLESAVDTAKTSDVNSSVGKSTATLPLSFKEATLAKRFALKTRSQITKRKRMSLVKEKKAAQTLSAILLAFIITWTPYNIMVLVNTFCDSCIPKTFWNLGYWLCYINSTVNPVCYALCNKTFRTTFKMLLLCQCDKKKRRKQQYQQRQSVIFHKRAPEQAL
Description: PDSP Primary Binding target: CHRM3 - Compounds are tested at 10 uM concentration, plate are incubated at room temperature in the dark for 90 minutes. Reaction are stopped by vacuum filtration onto 0.3% polyethyleneimine soaked filter mats using Filtermate harvester. Scintilation cocktail is then melted onto microwave-dried filters on a hot plate and the radio activity is counted in Microbia counter.

| Structure (SMILES) | inhibition [1] | inhibition [2] | inhibition [3] | inhibition [4] | inhibition [5] | inhibition [6] | inhibition [7] | inhibition [8] | inhibition [9] | inhibition [10] | inhibition [11] | inhibition [12] | inhibition [13] |
| --- | --- | --- | --- | --- | --- | --- | --- | --- | --- | --- | --- | --- | --- |
| COc1cc2nc(N3CCN(C(=O)c4ccco4)CC3)nc(N)c2cc1OC | 2.17% | 49.2% | 2.66% | 22.2% | 8.21% | 7.69% | 19.4% | 8.03% | 0% | 98.7% | 50% | – | – |
| CC(C)NC(=O)c1ccc(C#Cc2ccncc2)cn1 | 30.9% | -3.71% | – | – | – | – | -2.79% | – | – | -5.19% | 0.15% | -0.82% | – |
| O=C1O[C@]2(CC[C@H](C(=O)Nc3ccn(-c4ccccc4F)n3)CC2)c2cnccc21 | – | 10.1% | – | – | 2.41% | -8.27% | 0.42% | 19.7% | 3.66% | – | 4.44% | – | 2.94% |
| CC(C)Oc1ccccc1C(=O)Nc1ccccc1C(=O)Nc1cccc(S(=O)(=O)C(F)(F)F)c1 | -2.68% | 7.06% | – | – | -5.72% | 4.49% | 36.8% | 6.76% | -9.86% | -8.65% | -7.51% | – | 13.1% |
| COc1cccc(-c2c(C)n(Cc3c(F)cccc3C(F)(F)F)c(=O)n(C[C@H](NCCCC(=O)O)c3ccccc3)c2=O)c1F | 4.32% | 30.2% | – | -9.59% | – | 0.96% | -1.04% | -2.18% | – | 7.84% | 11.9% | -2.07% | -7.5% |
| COc1ccc2[nH]cc(CCNC(C)=O)c2c1 | – | 32.8% | 12% | 13.1% | -7.94% | 6.12% | – | 5.08% | 1.22% | -4.46% | – | – | – |
| CC(C)NCC(O)COc1cccc2[nH]ccc12 (configuration not stated) | 4.2% | 30.5% | 70.9% | 29.3% | – | 26.3% | 4.75% | 94.1% | 6.47% | 32% | 16.8% | – | – |
| CC(C)(C(=O)O)c1ccc(C(O)CCCN2CCC(C(O)(c3ccccc3)c3ccccc3)CC2)cc1 (configuration not stated) | -3.2% | 65.8% | – | 28.9% | -3.95% | 18.3% | -8.41% | -5.94% | 2.41% | – | – | – | – |
| Clc1cccc(Cl)c1NC1=NCCN1 | -8.53% | – | 31.6% | – | – | – | – | 8% | 65.3% | 69% | 3.84% | – | – |
| CNC[C@H](O)c1ccc(O)c(O)c1 | – | 15.9% | 37% | 10.9% | – | -3.14% | – | -3.44% | 2.3% | 6.21% | -2.25% | – | – |
| Brc1c(NC2=NCCN2)ccc2nccnc12 | – | 12.5% | 23.8% | – | – | 34.9% | -2.59% | -4.03% | 55.7% | 34% | 0.59% | – | – |
| Clc1ccc(CCCOCCCN2CCCCC2)cc1 | 76.8% | 6.98% | – | 12.1% | 79.8% | – | 39.1% | 16.8% | 5.07% | -2.04% | 3.99% | 1.88% | 44.5% |
| N#Cc1c(N)nc(SCc2csc(-c3ccc(Cl)cc3)n2)c(C#N)c1-c1ccc(OCCO)cc1 | -8.79% | – | 26.8% | 11.3% | 5.12% | – | – | -0.89% | 7.17% | 6.84% | – | 2.13% | – |
| NC[C@H](O)c1ccc(O)c(O)c1 | – | 6.01% | 66.2% | 2.57% | – | 34.8% | – | -9.29% | 37.9% | 7.82% | – | 90.6% | – |
| CN1CCC(=C2c3ccccc3CC(=O)c3sccc32)CC1 | 64.6% | 100% | – | 82.8% | -7.74% | 55.2% | 78.4% | 6.57% | 1.66% | 9.71% | 15.9% | – | – |
| CCCn1c(=O)c2nc(C34CC5CC(CC3C5)C4)[nH]c2n(CCC)c1=O | – | – | – | – | -9.29% | 23.9% | -4.94% | -4.72% | – | – | 9.1% | 6.22% | – |
| O=C(O)COc1cccc(CN(Cc2ccc(-n3cccn3)cc2)S(=O)(=O)c2cccnc2)c1 | -2.13% | 7.85% | – | – | 6.23% | 2.14% | -0.81% | -0.9% | -5.67% | -1.12% | -4.37% | -5.85% | 7.64% |
| CCc1nn2c(C)cc(C)nc2c1Cc1ccc(-c2nnc(C3CCNCC3)o2)cc1 | -6.61% | -9.55% | -6.08% | – | -8.3% | 6.13% | 14.4% | -1.59% | -7.24% | -9.75% | 50.7% | 27.4% | – |
| CCOC(=O)c1cc(C#N)c(N2CCC(C(=O)NS(=O)(=O)Cc3ccccc3)CC2)nc1C | 18.3% | 13.7% | – | 0.26% | 15% | – | 9.24% | – | -8.97% | 33.7% | 4.87% | -7.37% | – |
